Source: article PMC3789093 (Oncology Letters, 2013)

Tests used:
Format in all cases: biochemical
CYP1A2 = target: T1, CYP1A2 (Homo sapiens, UniProt P05177); assay: Vivid CYP450 Screening kit fluorescence assay
T1 sequence (P05177 2-516): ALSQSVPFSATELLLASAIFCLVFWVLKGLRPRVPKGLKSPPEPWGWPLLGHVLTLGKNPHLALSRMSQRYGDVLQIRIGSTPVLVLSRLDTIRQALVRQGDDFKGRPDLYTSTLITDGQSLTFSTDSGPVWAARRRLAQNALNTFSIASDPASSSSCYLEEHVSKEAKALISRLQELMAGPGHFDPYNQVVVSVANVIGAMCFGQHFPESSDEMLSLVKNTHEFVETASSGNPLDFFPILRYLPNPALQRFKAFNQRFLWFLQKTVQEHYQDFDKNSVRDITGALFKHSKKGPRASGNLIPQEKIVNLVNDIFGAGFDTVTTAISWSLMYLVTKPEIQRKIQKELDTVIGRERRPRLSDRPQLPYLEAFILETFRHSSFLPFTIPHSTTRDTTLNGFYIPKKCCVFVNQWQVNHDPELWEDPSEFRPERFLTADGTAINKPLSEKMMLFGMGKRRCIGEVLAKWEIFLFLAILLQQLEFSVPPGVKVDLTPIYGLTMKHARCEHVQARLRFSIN

CYP1A1 [1] = target: T2, CYP1A1 (Homo sapiens, UniProt P04798); assay: P450-Glo CYP1A1 luminescence assay, recombinant enzyme in microsomes
T2 sequence (P04798 1-512): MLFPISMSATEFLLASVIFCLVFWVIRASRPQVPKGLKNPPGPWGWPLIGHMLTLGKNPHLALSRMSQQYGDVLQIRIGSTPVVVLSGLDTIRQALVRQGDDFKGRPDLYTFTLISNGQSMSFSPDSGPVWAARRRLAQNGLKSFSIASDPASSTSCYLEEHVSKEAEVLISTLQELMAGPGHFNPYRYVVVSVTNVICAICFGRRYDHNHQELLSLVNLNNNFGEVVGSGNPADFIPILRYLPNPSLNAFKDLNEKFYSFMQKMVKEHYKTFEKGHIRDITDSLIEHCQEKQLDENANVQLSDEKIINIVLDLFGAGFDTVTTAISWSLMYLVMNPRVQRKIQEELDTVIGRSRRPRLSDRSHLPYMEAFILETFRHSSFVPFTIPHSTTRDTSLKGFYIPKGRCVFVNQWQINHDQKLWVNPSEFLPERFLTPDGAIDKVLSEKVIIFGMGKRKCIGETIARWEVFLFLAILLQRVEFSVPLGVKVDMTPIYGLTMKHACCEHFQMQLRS

CYP3A4 = CYP3A4 (Homo sapiens, UniProt P08684); assay: Vivid CYP450 Screening kit fluorescence assay
CYP1A1 [2] = target: T2, CYP1A1; assay: P450-Glo CYP1A1 luminescence assay, positive control at […]

Sequence of CYP3A4 (P08684 2-503): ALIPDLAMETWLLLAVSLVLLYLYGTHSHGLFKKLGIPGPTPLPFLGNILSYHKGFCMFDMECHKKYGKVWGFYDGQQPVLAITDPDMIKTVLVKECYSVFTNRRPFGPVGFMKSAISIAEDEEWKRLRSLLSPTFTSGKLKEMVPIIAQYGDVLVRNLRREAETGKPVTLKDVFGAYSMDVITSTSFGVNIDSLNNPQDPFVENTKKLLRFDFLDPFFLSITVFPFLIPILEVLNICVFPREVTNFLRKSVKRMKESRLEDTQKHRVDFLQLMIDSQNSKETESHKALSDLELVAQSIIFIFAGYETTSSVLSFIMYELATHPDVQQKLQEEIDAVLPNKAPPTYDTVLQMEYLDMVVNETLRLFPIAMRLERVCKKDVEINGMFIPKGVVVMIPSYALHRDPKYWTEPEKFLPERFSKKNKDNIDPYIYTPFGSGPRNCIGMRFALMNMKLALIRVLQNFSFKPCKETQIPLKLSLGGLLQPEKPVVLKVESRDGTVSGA

IC50 (CYP1A2)	IC50 (CYP1A1 [1])	IC50 (CYP3A4)	Structure (SMILES)	P450-Glo CYP1A1 luminescence assay, positive control at 1 μM (CYP1A1 [2])
49 µM	12.5 µM	11 µM	CC(=O)O[C@H]1CC(C)(C)C(=C=C/C(C)=C/C=C/C(C)=C/C=C/C=C(C)/C=C/C=C(\C)C(=O)C[C@@]23O[C@]2(C)C[C@@H](O)CC3(C)C)[C@](C)(O)C1 [Fx, fucoxanthin]	–
–	–	–	COc1ccc2[nH]c([S+]([O-])Cc3ncc(C)c(OC)c3C)nc2c1 (stereo not shown) [OMP, omeprazole]	significantly inhibited CYP1A1 activity, although the inhibition was weaker than that of omeprazole, a known CYP1A1 inhibitor
